{"source": "patent US6630483B2", "about": "“Phenanthridine-N-oxides” (Altana Pharma AG, priority 2000, dated 2003)", "key": {"PDE IV": {"system": "PDE IV", "experiment": "Inhibition of PDE4 activity (method of Bauer and Schwabe, microtiter plates)", "type": "biochemical", "source_text": "The activity test can be carried out, for example, according to the method of Bauer and Schwabe. For this, the method is adapted to microtiter plates (Naunyn-Schmiedeberg's Arch. Pharmacol. 1980, 311, 193-198). The PDE reaction takes place in the first step here. In a second step, the resulting 5′-nucleotide is cleaved by a 5′-nucloetidase of the snake venom of Crotalus atrox to the uncharged nucleoside. In the third step, the nucleoside is separated from the remaining charged substrate on ion-exchange columns. The columns are eluted directly into minivials, into which 2 ml of scintillator fluid are additionally added for counting, using 2 ml of 30 mM ammonium formate (pH 6.0)."}}, "data": [{"smiles": "COc1cc2c(cc1OC)[C@@H]1CCCC[C@@H]1[N+]([O-])=C2c1ccc(S(C)(=O)=O)cc1", "note": "[Compound 1, (−)-cis-8,9-Dimethoxy-6-(4-methanesulfonylphenyl)-1,2,3,4,4a,10b-hexahydrophenanthridine-N-oxide]", "values": [{"measurement": "-log IC50", "setting": "PDE IV", "value": 6.09}, {"measurement": "melting point", "value": "229 to 231", "unit": "°C"}]}]}
